According to patent US7973162B2, “Modulators of muscarinic receptors” (Vertex Pharmaceuticals Incorporated, priority 2007, dated 2011):

Assays:
Assay type in all cases: cell-based
M1 muscarinic receptor = target: T1, M1 muscarinic receptor (Homo sapiens, UniProt P11229); assay: Functional mobilization of intracellular calcium (FLIPR), M1-CHO cells; details: for Emax / M1 Efficacy: 100% efficacy = maximum response obtained with the Carbachol control; for EC50: CHO cells expressing M1, calcium mobilization
T1 construct: expressed in transfected cells; host or cells: CHO (M1-CHO)
T1 sequence (P11229 1-460): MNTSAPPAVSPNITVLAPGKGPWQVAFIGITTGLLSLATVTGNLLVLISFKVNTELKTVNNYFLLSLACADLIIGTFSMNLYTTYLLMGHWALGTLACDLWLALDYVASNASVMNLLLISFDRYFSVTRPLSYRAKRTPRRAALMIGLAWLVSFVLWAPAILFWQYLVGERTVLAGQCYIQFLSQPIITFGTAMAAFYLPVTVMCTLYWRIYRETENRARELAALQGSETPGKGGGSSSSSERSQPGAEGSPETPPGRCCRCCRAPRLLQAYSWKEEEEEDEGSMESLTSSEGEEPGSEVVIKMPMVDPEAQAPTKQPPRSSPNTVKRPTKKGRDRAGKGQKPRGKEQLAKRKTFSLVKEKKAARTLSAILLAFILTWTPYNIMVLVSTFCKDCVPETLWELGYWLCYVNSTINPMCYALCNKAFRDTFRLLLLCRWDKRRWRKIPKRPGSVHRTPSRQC
Protocol: (§1) Functional Mobilization of Intracellular Calcium to Determine Muscarinic Receptor Activity:
(§2) CHO cells expressing muscarinic receptors (M1 to M5) are grown as monolayers in tissue culture flasks at 37° C. in a humidified atmosphere containing 5% CO2 and passaged every 3-5 days. The growth media is Dulbecco's modified eagles medium (DMEM, Gibco Cat# 12430-054), containing 25 mM Hepes and supplemented with Fetal Bovine Serum (Hyclone, cat #SH30071.03), 0.1 mM of MEM non-essential amino acids (GIBCO, Cat #11140-050), 1 mM MEM Sodium Pyruvate (GIBCO Cat #11360-070) and 100 units/ml of Penicillin G and 100 μg/ml of Streptomycin (GIBCO Cat #15140-122). The recombinant muscarinic receptor cell lines are grown under antibiotic pressure with media containing 25 μg/ml zeocin and 500 μg/ml G418 (M1-CHO), 4 μg/ml puromycin, 50 μg/ml zeocin and 2.5 μg/ml blasticidin (M2 and M4-CHO) or 50 μg/ml zeocin and 4 μg/ml puromycin (M3 and M5-CHO).
(§3) Cells are harvested at 80-90% confluence using Versene (GIBCO Cat #15040-066), collected by centrifugation and seeded 18-24 hrs prior to running the calcium assay at a density of 5,000-10,000 cells/well in […], clear-bottomed 384-well plates (BD Biocoat, poly-D-lysine, Cat#356663). The day of the experiment, the cells are washed with a plate washer (Bioteck Instruments, ELX 405) using bath1 buffer (140-mM NaCl, 4.5-mM KCl, 2-mM CaCl2, 1-mM MgCl2, 10-mM Hepes-Na, 10-mM Glucose, pH 7.4, with NaOH) containing 1 mM Probenecid. Next, the calcium dye Fluo-3 (25 μl/well of Fluo-3 AM at 4 μM, Molecular Probes F-1241, in Bath 1 buffer containing 1 mM Probenecid) is added to the 25 μl of Bath 1 remaining in each well after the plate wash and the dye is loaded at 37° C. in the tissue culture incubator for 60-90 min. The fluorescent dye is removed using the plate washer with Bath 1 containing 1 mM Probenecid, leaving 25 μl/well of this solution after the wash. Alternatively, cells can be loaded with the calcium indicator from Molecular Devices (Calcium 3 Assay Reagents, Cat #R7181) adding 5 μl of a 5× solution dye in Bath 1 containing 1 mM Probenecid (10 ml per dye flask cat #R7182 to generate a solution 20×) to 20 μl of the same buffer. After loading for 60 min, the experiment can be run without having to remove the dye.
(§4) Compounds are prepared at a 2× fold concentration in a 96-well plate (round bottom, Costar Corning cat #3656), by reconstituting the pre-spotted compounds in bath 1 containing 1 mM probenecid. The final concentration DMSO is 0.5%, and the amount of DMSO is normalized across the assay plate. To determine an agonist action of the compounds on muscarinic receptors, the reconstituted compounds are added (25 μl compound/well) to the cell assay plate (containing 25 μl/well) using the multi-channel robotic system of the FLIPR 3 Instrument (Molecular Devices, Sunnyvale, Calif.). To determine a functional inhibitory action of the compounds on muscarinic receptors, the reconstituted compounds are added (25 μl compound/well) to the assay plate and pre-incubated for 15 min prior to adding 25 μl of Carbachol at 3× the EC80 for each muscarinic subtype. Alternatively, the compounds can be co-applied simultaneously with the agonist. In both assay modes, the fluorescence is recorded for 60 sec (excitation wavelength is […] and emission wavelength 540 nm) using the FLIPR 3 instrument.
(§5) The potency, efficacy and selectivity of the muscarinic compounds were evaluated by screening the compound activity across the whole family (M1 to M5 cells). Compounds were also screened for activity on other proteins such as other GPCRs and ion channels to determine selectivity on M4 receptors.
(§6) Examples of activities and efficacies of the muscarinic compounds of formulae (I, Ia, and Ib) on modulating M1 and M4 receptors are shown below in Table 3. […]

M2 muscarinic receptor = target: T2, M2 muscarinic receptor (Homo sapiens, UniProt P08172); assay: Functional mobilization of intracellular calcium (FLIPR), M2-CHO cells; details: for Emax / M2 Efficacy: 100% efficacy = maximum response obtained with the Carbachol control; for EC50: CHO cells expressing M2, calcium mobilization
T2 construct: expressed in transfected cells; host or cells: CHO (M2-CHO)
T2 sequence (P08172 1-466): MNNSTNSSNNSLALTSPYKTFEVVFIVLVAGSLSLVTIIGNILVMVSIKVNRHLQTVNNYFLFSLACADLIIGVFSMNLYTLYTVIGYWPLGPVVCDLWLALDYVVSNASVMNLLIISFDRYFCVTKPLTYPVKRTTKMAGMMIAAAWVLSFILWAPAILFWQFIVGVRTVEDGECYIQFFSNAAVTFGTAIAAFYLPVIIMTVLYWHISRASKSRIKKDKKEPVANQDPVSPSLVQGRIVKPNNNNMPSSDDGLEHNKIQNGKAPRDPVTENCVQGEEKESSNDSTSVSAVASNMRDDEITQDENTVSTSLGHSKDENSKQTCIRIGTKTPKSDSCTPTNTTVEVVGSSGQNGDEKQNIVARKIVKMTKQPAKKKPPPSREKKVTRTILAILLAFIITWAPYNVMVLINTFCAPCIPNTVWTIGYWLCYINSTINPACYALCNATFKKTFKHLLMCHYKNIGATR
Protocol: as §1, §2, §3, §4, §5, §6

M3 muscarinic receptor = target: T3, M3 muscarinic receptor (Homo sapiens, UniProt P20309); assay: Functional mobilization of intracellular calcium (FLIPR), M3-CHO cells; details: for Emax / M3 Efficacy: 100% efficacy = maximum response obtained with the Carbachol control; for EC50: CHO cells expressing M3, calcium mobilization
T3 construct: expressed in transfected cells; host or cells: CHO (M3-CHO)
Protocol: as §1, §2, §3, §4, §5, §6

M4 muscarinic receptor = target: T4, M4 muscarinic receptor (Homo sapiens, UniProt P08173); assay: Functional mobilization of intracellular calcium (FLIPR), M4-CHO cells; details: for Emax / M4 Efficacy: 100% efficacy = maximum response obtained with the Carbachol control; for EC50: CHO cells expressing M4, calcium mobilization
T4 construct: expressed in transfected cells; host or cells: CHO (M4-CHO)
T4 sequence (P08173 1-479): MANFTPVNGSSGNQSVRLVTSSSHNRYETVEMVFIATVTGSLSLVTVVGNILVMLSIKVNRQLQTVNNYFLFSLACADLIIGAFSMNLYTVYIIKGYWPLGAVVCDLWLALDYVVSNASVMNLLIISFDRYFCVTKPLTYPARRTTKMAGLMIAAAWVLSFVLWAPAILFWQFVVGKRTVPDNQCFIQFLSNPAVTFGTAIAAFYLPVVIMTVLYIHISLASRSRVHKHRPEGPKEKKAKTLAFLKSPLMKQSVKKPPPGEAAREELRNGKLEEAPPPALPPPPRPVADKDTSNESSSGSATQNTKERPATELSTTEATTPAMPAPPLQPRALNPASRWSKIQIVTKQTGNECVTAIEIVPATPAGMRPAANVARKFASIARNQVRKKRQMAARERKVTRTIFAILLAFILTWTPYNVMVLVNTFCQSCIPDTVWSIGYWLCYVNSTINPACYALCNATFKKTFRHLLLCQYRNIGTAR
Protocol: as §1, §2, §3, §4, §5, §6

T3 sequence (P20309 whole entry): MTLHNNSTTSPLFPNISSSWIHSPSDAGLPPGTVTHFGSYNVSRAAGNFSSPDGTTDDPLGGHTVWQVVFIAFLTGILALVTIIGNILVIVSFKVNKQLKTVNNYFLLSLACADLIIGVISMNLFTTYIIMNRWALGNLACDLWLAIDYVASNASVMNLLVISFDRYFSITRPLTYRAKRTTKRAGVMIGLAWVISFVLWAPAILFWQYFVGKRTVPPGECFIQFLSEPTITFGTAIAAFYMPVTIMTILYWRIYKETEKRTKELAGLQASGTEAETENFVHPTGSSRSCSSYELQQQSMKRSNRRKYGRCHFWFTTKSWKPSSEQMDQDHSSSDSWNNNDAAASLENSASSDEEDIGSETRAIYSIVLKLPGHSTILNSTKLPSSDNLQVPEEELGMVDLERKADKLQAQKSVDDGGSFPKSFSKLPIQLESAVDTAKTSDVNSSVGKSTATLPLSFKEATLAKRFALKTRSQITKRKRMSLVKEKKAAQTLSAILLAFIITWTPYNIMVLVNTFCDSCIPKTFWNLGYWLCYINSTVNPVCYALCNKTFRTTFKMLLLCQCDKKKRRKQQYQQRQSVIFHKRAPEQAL

| SMILES | Emax (M1 muscarinic receptor) | EC50 (M1 muscarinic receptor) | Emax (M2 muscarinic receptor) | EC50 (M2 muscarinic receptor) | Emax (M3 muscarinic receptor) | EC50 (M3 muscarinic receptor) | Emax (M4 muscarinic receptor) | EC50 (M4 muscarinic receptor) | M1 Efficacy (M1 muscarinic receptor) | M2 Efficacy (M2 muscarinic receptor) | M3 Efficacy (M3 muscarinic receptor) | M4 Efficacy (M4 muscarinic receptor) |
| --- | --- | --- | --- | --- | --- | --- | --- | --- | --- | --- | --- | --- |
| c1ccc2c(c1)C1OCCC1CC21CCN(CC2CCCCC2)CC1 (centres unmarked) [Compound 14] | 25 to 100% | > 5000 nM | < 25% | > 5000 nM | < 25% | > 5000 nM | 25 to 100% | < 2000 nM |  |  |  |  |
| CCOC(=O)N1CCC(N2CCC3(CC2)C[C@H]2CC(=O)N[C@H]2c2ccccc23)CC1 [Compound 17] |  | < 2000 nM |  | < 2000 nM |  | > 5000 nM |  | < 2000 nM | ++ (efficacy was calculated to be from 100% to 25%) | ++ (efficacy was calculated to be from 100% to 25%) | + (efficacy was calculated to be less than 25%) | ++ (efficacy was calculated to be from 100% to 25%) |
| CCOC(=O)N1CCC(N2CCC3(CC2)C[C@H]2CC(=O)N(CC(=O)O)[C@H]2c2ccccc23)CC1 [Compound 13] | 25 to 100% | > 5000 nM | < 25% | > 5000 nM | < 25% | > 5000 nM | 25 to 100% | > 5000 nM |  |  |  |  |
| O=C1C[C@@H]2CC3(CCN(C[C@@H]4C[C@H]5C=C[C@H]4C5)CC3)c3ccccc3[C@@H]2N1 [Compound 25] | 25 to 100% | < 2000 nM | 25 to 100% | < 2000 nM | 25 to 100% | > 5000 nM | 25 to 100% | < 2000 nM |  |  |  |  |
| O=C1C[C@@H]2CC3(CCN(C4CC5CCC(C5)C4)CC3)c3ccccc3[C@@H]2N1 (some centres unmarked) [Compound 5] | 25 to 100% | < 2000 nM | 25 to 100% | < 2000 nM | < 25% | > 5000 nM | 25 to 100% | < 2000 nM |  |  |  |  |
| O=C1CC2CC3(CCN(C4CCCCC4)CC3)c3ccccc3C2O1 (centres unmarked) [Compound 21] | 25 to 100% | < 2000 nM | 25 to 100% | > 5000 nM | < 25% | > 5000 nM | 25 to 100% | < 2000 nM |  |  |  |  |
| O=C1C[C@@H]2CC3(CCN(C4CCCCC4)CC3)c3ccccc3[C@@H]2N1 [Compound 19] |  | < 2000 nM |  | 2000 to 5000 nM |  | > 5000 nM |  | < 2000 nM | ++ (efficacy was calculated to be from 100% to 25%) | ++ (efficacy was calculated to be from 100% to 25%) | + (efficacy was calculated to be less than 25%) | ++ (efficacy was calculated to be from 100% to 25%) |
